Experimental data published in patent US11033538B2, “Dosing regimens for the treatment of lysosomal storage diseases using pharmacological chaperones” (Amicus Therapeutics, Inc., priority 2007, dated 2021).
Where two headings read alike, the source gives them in different places.

What was measured:
α-GAL = target: T1, α-GAL (Homo sapiens, UniProt P06280); format: in vivo
T1 construct: α-GAL activity was calculated in white blood cells (WBC); endogenous in cells; host or cells: white blood cells of healthy male volunteers
T1 sequence (P06280 32-429): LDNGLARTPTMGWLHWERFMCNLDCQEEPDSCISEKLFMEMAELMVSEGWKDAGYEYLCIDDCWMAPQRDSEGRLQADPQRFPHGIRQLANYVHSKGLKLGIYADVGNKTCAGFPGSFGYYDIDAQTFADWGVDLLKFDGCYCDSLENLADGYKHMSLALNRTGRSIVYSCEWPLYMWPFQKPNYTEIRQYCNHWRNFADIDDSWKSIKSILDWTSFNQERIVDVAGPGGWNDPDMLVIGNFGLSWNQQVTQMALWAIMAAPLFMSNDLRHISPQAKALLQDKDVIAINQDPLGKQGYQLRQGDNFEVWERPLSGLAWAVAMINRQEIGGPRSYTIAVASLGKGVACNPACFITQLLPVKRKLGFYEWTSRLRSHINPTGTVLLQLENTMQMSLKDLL
Protocol: A multiple-dose Phase I trial was conducted and consisted of a total of 16 healthy volunteers divided into two groups of eight subjects. […] All subjects in one group received placebo or 50 mg twice a day for seven days, and all subjects in the other group received placebo or 150 mg twice a day for seven days. Subjects were evaluated at the beginning of the study, on Day 7 after seven days of treatment and on Day 14 after a seven day washout period.
Blood samples (10 mL each) were collected in blood collection tubes containing EDTA and WBC extracted before dosing and at the following times thereafter: 100 hours, 150 hours, and 336 hours. Samples were treated as described above, and WBC α-GAL enzymatic activity levels were determined as described in Desnick, R. J. (ed) Enzyme therapy in genetic diseases. Vol 2. Alan R Liss, New York, pp 17-32. Statistical Analysis. Safety data including laboratory evaluations, physical exams, adverse events, ECG monitoring and vital signs assessments were summarized by treatment group and point of time of collection. Descriptive statistics (arithmetic mean, standard deviation, median, minimum and maximum) were calculated for quantitative safety data as well as for the difference to baseline. Frequency counts were compiled for classification of qualitative safety data. In addition, a shift table describing out of normal range shifts was provided for clinical laboratory results. A normal-abnormal shift table was also presented for physical exam results and ECGs.

healthy male volunteers = system: healthy male volunteers
Protocol: Safety was determined by evaluating vital signs, laboratory parameters (serum chemistry, hematology, and urinalysis), ECGs, physical examination and by recording adverse events during the Treatment Period.
Adverse events were coded using the MedDRA version 7.0 dictionary and summarized by treatment for the number of subjects reporting the adverse event and the number of adverse events reported. A by-subject adverse event data listing including verbatim term, coded term, treatment group, severity, and relationship to treatment was provided. Concomitant medications and medical history were listed by treatment.

GL-3 [1] = test: Oral administration of Amigal to mice that produce defective human α-GAL, GL-3; format: in vivo
Protocol: Kidney GL-3 levels were assessed by an independent expert using electron microscopy.

GL-3 [2] = test: Example 6, kidney biopsy GL-3 histology; format: in vivo, human
Protocol: Four male patients received a single 150 mg Q.O.D for 12 weeks (Group B); while five male patients received 150 mg Q.O.D. for 24 weeks (Group C). Finally nine female patients were randomized to receive one of three dosages: 50, 150 or 250 mg Q.O.D for 12 weeks (Group D) (FIG. 8).
Kidney biopsies were performed at baseline, 12 weeks and 24 weeks post-treatment and evaluated for GL-3 deposits in various renal cells. GL-3 presence in the tissue was examined histologically as well as through the use of mass spectroscopy. Light microscopic analysis of kidney biopsies was performed, wherein the accumulation of GL-3 in the tissue was classified in a manner similar to the classification analysis performed in Kidney International, Vol. 62 (2002), pp. 1933-1946 which is hereby incorporated by reference. Cells were classified as containing no GL-3 accumulation (“0”); mild GL-3 accumulation (“1”); moderate GL-3 accumulation (“2”); or severe GL-3 accumulation (“3”).
Kidney GL-3 levels were assessed using histological and mass spectroscopic analysis. Kidney biopsies were examined in four of the “good” responders, two of the “moderate” responders, and two of the “non” responders. Accumulation of GL-3 was examined in three different kidney cell types: interstitial capillaries, distal tubules, and podocytes.

Fabry patients [3] = test: Example 6, renal function (eGFR); format: in vivo, human; details: good responders
Protocol: Renal function was evaluated using glomerular filtration rate (GFR).
Renal function was measured using glomerular filtration rate (GFR) (MDRD equation was used to estimate GFR using serum creatinine adjusted for age, gender and race). Approximately half of all Fabry patients have an abnormally low GFR (<90 ml/min/1.73 m^2). […] As shown in FIG. 17A-B, the good responders maintained a mean eGFR within the normal eGFR range of 90-120 ml/min/1.73 m^2 during the entire treatment procedure (FIG. 17A), while the predicted mean eGFR level of untreated individual is projected to continue declining below 90 ml/min/1.73 m^2 (FIG. 17B).

Fabry patients [4] = test: Example 6, cardiac analysis; format: in vivo, human
Protocol: In addition to the biopsies described above, MRIs, electrocardiograms and echocardiograms with strain rate evaluations was performed at baseline and periodically throughout the study to assess cardiac morphology (e.g., left ventricular hyertrophy) and cardiac function (e.g., ejection fraction and conduction/rhythm abnormalities).

GL-3 [5] = test: Example 11, GL-3 levels by LC-MS/MS in hR301Q GLA Tg/KO mice, daily vs less frequent dosing; format: in vivo; details: 300 mg/kg in drinking water, 4 weeks; skin, heart, kidney, plasma
Protocol: Lysates were prepared from skin, heart, kidney and plasma. GL-3 levels were measured by LC-MS/MS (expressed in mg/g tissue weight or mg/mL plasma). […] Each bar represents the mean±SEM of 10-16 mice/group.

[6] = 50 and 150 mg twice daily for 7 days

## OC[C@H]1NC[C@H](O)[C@@H](O)[C@H]1O [DGJ, (2R,3S,4R,5S)-2-(hydroxymethyl) piperdine-3,4,5-triol]
α-GAL; 50 mg b.i.d. or 150 mg b.i.d.
  inhibition of WBC α-GAL enzymatic activity: did not inhibit WBC α-GAL enzymatic activity
α-GAL; 50 mg b.i.d., 100 hours
  WBC α-GAL enzymatic activity: 120 % pre-dose levels
α-GAL; 50 mg b.i.d., 150 hours
  WBC α-GAL enzymatic activity: 130 % pre-dose levels
α-GAL; 50 mg b.i.d., 336 hours
  WBC α-GAL enzymatic activity: 145 % pre-dose levels
α-GAL; 150 mg b.i.d., 100 hours
  WBC α-GAL enzymatic activity: 150 % pre-dose levels
α-GAL; 150 mg b.i.d., 150 hours
  WBC α-GAL enzymatic activity: 185 % pre-dose levels
α-GAL; 150 mg b.i.d., 336 hours
  WBC α-GAL enzymatic activity: 185 % pre-dose levels
α-GAL; [6]
  GLA levels in white blood cell lysates: increased GLA levels
α-GAL; highest dose level (150 mg twice a day for seven days), healthy volunteers
  increase in levels of α-GAL in white blood cells: ~2 fold
α-GAL; highest dose level, after the last dose
  persistence of the α-GAL increase: maintained for at least seven days after the last dose
Healthy male volunteers; 50 mg b.i.d. and 150 mg b.i.d., 7 days
  safety and tolerability: safe and well tolerated
Healthy male volunteers; 50 mg b.i.d. or 150 mg b.i.d.
  adverse events (AEs): no subject presented with AEs
Healthy male volunteers; [6]
  tolerability: generally well-tolerated at all doses
Healthy male volunteers; 50 or 150 mg b.i.d.
  vital sign, ECG, physical examination: No clinically relevant abnormality occurred in any vital sign, ECG, or physical examination parameter
Healthy male volunteers; any treatment group
  serious adverse events: no serious adverse events
GL-3 [1]
  GL-3 after oral administration: GL-3 reductions observed
GL-3 [2]; male good responders
  distal tubule GL-3 (histology): three of the good responders experienced a decrease in GL-3
  interstitial capillary GL-3 (histology): one patient displayed a decrease in interstitial capillary GL-3
  overall GL-3 levels in kidney biopsies: two of the good responders showed a decrease in GL-3
  podocyte GL-3 (histology): all four good responders experienced no change
GL-3 [2]; male moderate responders
  overall GL-3 levels in kidney biopsies: two patients showed a decrease in GL-3 levels
GL-3 [2]; male non-responders
  overall GL-3 levels in kidney biopsies: One non-responders showed a decrease in GL-3 levels
Fabry patients [3]
  mean eGFR maintained during the entire treatment: 90-120 ml/min/1.73 m^2
Fabry patients [4]; 2 good responders with abnormally high left ventricle mass, 48 weeks
  left ventricle mass: no change in left ventricle mass
Fabry patients [4]; one good responder with abnormally high left ventricle mass, 12 weeks
  decrease in left ventricle mass: 8%
Fabry patients [4]; two of three good responders with abnormal ejection fraction before treatment
  ejection fraction following treatment: > 55%
GL-3 [5]
  GL-3 levels by LC-MS/MS, less frequent (4 days on/3 days off) vs daily dosing: greater reduction in GL-3 levels
